Values of other authors as cited in patent US20250312247A1, “OXYGEN GENERATING FACE MASKS” (DERMOQ, INC., priority 2018, published 2025).

Details: topically applied dissolved oxygen, transcutaneous

O=O [dissolved oxygen, oxygen]
depth of penetration through human skin: > 700 μm
